Source: PubChem BioAssay (NCI)
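Test compounds were applied to cells in 96-well plates for 48 hours at 5 doses. Abbreviation: GI50, concentration required for 50% inhibition of growth. Definition used: TGI = concentration required for complete inhibition of growth.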

Tests used:
Test in all cases: DTP human tumour cell line panel, 48 h
SF-268 CNS = system: SF-268 CNS
SK-OV-3 ovarian = system: SK-OV-3 ovarian
RXF 393 renal = system: RXF 393 renal
T-47D breast = system: T-47D breast
MALME-3M melanoma = system: MALME-3M melanoma
786-0 renal = system: 786-0 renal
HT29 colon = system: HT29 colon
HOP-62 NSCLC = system: HOP-62 NSCLC
UACC-257 melanoma = system: UACC-257 melanoma
PC-3 prostate = system: PC-3 prostate

| Structure (SMILES) | TGI (SF-268 CNS) [µM] | TGI (SK-OV-3 ovarian) [µM] | TGI (RXF 393 renal) [µM] | TGI (T-47D breast) [µM] | TGI (MALME-3M melanoma) [µM] | TGI (786-0 renal) [µM] | TGI (HT29 colon) [µM] | TGI (HOP-62 NSCLC) [µM] | TGI (UACC-257 melanoma) [µM] | GI50 (SF-268 CNS) [µM] | GI50 (T-47D breast) [µM] | GI50 (MALME-3M melanoma) [µM] | GI50 (786-0 renal) [µM] | GI50 (PC-3 prostate) [µM] | TGI (PC-3 prostate) [µM] | GI50 (HT29 colon) [µM] | GI50 (HOP-62 NSCLC) [µM] | GI50 (UACC-257 melanoma) [µM] | GI50 (SK-OV-3 ovarian) [µM] | GI50 (RXF 393 renal) [µM] |
| --- | --- | --- | --- | --- | --- | --- | --- | --- | --- | --- | --- | --- | --- | --- | --- | --- | --- | --- | --- | --- |
| COc1ccccc1-c1cc(=O)c2ccc(OC)c(OC)c2o1 | > 100 | > 100 | > 100 | 75.5 | > 100 | > 100 | > 100 | > 100 | > 100 | – | – | – | – | – | – | – | – | – | – | – |
| O=C(NCc1ccncc1)C1COc2cc(-c3cc(=O)c4ccccc4o3)ccc2O1 (stereo unspecified) | – | > 100 | > 100 | – | > 100 | > 100 | > 100 | > 100 | > 100 | – | – | – | – | – | – | – | – | – | – | – |
| CC(=O)/C=C/c1ccc(C)cc1 | > 100 | > 100 | > 100 | – | > 100 | > 100 | > 100 | > 100 | > 100 | – | – | – | – | – | – | – | – | – | – | – |
| COc1ccc2c(c1)/C(=N/OC(C)=O)c1c-2c(=O)[nH]c2ccccc12 | > 100 | – | – | 27.2 | 29.8 | 43.6 | 32.8 | 34.4 | 34.2 | 25.1 | 3 | 13.2 | 15.9 | 11.8 | 26 | 15.6 | 18 | 17.3 | – | – |
| CC(C)CN(CC(C)C)C(=O)C1CCCC[C@@H]1C(=O)O (stereo partly specified) | > 100 | > 100 | – | – | > 100 | > 100 | > 100 | > 100 | > 100 | – | – | – | – | – | – | – | – | – | – | – |
| c1ccc(COC2(OCc3ccccc3)CC3OC2C2NN=NC32)cc1 (stereo unspecified) | 51 | > 100 | > 100 | – | 52.6 | 34.8 | 46.5 | > 100 | 36.2 | – | – | – | – | – | – | – | – | – | – | – |
| Cc1c2c(cc3c(=O)ccn(CCN(C)C)c13)c(=O)ccn2CCN(C)C | 21.8 | 37.5 | 28.9 | – | 69.1 | 17.5 | – | 29.1 | 33.7 | – | – | – | – | – | – | – | – | – | – | – |
| COc1cc(Nc2nc3ccc(C(F)(F)F)cc3nc2-c2ccccc2)cc(OC)c1OC | > 100 | > 100 | > 100 | – | > 100 | > 100 | 5.31 | > 100 | 85 | – | – | – | – | – | – | – | – | – | – | – |
| O=C(/C=C/c1ccccc1Cl)c1ccc(Cl)cc1Cl | 31.3 | 35.6 | – | – | 33.5 | 31.4 | 28 | 42.1 | 29.7 | – | – | – | – | – | – | – | – | – | – | – |
| O=C(c1ccc(Cl)cc1)c1ccc(OCCSCCCCCCCCCCSCCOc2ccc(C(=O)c3ccc(Cl)cc3)cc2)cc1 | > 100 | > 100 | > 100 | – | > 100 | > 100 | > 100 | > 100 | > 100 | – | – | – | – | – | – | – | – | – | – | – |
| N#CC1CC2(C(=O)C1=O)c1ccccc1-c1ccccc12 (stereo unspecified) | > 100 | > 100 | > 100 | – | > 100 | > 100 | > 100 | > 100 | > 100 | – | – | – | – | – | – | – | – | – | – | – |
| C1COCCOCCOCCOCCO1.CC(=O)[CH-]C(C)=O.CC(=O)[CH-]C(C)=O.CC(=O)[CH-]C(C)=O.[V] | 65.8 | 33 | 3.26 | – | 16.4 | 12.9 | 37.4 | – | 25.3 | 20.6 | – | 2.99 | 2.96 | – | – | 19.1 | – | 12.1 | 17.6 | 1.63 |
| C=C1C(=O)O[C@H]2[C@H]1CC/C(COC(=O)c1ccccc1)=C\CC[C@@]1(C)O[C@@H]21 | 3.47 | 24 | 2.58 | – | 3.86 | 3.08 | 2.1 | 14.1 | 3.37 | 1.56 | – | 1.82 | 1.46 | 1.8 | 4.34 | 0.412 | 2.96 | 1.51 | 11.8 | 1.14 |
| COc1ccc(-c2csc(NC(=O)c3cc(O)c(O)c(O)c3)n2)cc1 | > 33.3 | > 33.3 | > 33.3 | 22.6 | > 33.3 | > 33.3 | > 33.3 | > 33.3 | > 33.3 | 6.31 | 5.19 | 11.1 | 11 | – | – | 18.6 | 8.92 | 11.9 | 17.2 | 7.31 |
| Cc1cc2cn3c4cccnc4[nH]c(=O)c3c2cc1C | – | 3.2 | 2.88 | 4 | – | 3.33 | – | 2.85 | 3.41 | – | 1.84 | – | 1.87 | 1.42 | 2.89 | – | 1.5 | 1.67 | 1.8 | 1.46 |
| O=c1c2cccnc2ncn1CCN1CCCC1 | > 100 | > 100 | > 100 | – | > 100 | > 100 | > 100 | > 100 | – | – | – | – | – | – | – | – | – | – | – | – |
| O=c1c2ccccc2nc(-c2cccc(Cl)c2)n1NCC1(O)OCC(O)C(O)C1O (stereo unspecified) | > 100 | > 100 | > 100 | – | > 100 | > 100 | > 100 | – | > 100 | – | – | – | – | – | – | – | – | – | – | – |
| N#Cc1c(N)nc(N2CCOCC2)c(C#N)c1-c1ccccc1Cl | 85.7 | > 100 | 72.3 | > 100 | – | > 100 | > 100 | > 100 | > 100 | 25.4 | 21.2 | – | 62.1 | 22.6 | > 100 | 57 | > 100 | 47.9 | 41.2 | 17.5 |
| S=c1nc(N2CCCCC2)ss1 | 49.5 | > 100 | 33.4 | – | 35.6 | 48.1 | 79.6 | 64.6 | 49.9 | – | – | – | – | – | – | – | – | – | – | – |
| CCC(C(=O)c1ccccc1)C(CCCC(=O)Nc1c(C)cccc1C)N=O (stereo unspecified) | > 100 | > 100 | – | – | > 100 | > 100 | > 100 | > 100 | > 100 | – | – | – | – | – | – | – | – | – | – | – |
| Cc1ccc(Oc2ccc([N+](=O)[O-])cc2[N+](=O)[O-])c(C)c1 | – | > 100 | 89.7 | – | > 100 | > 100 | 59.3 | > 100 | 99.6 | – | – | – | – | – | – | – | – | – | – | – |
